Laboratory results reported in ChEMBL document CHEMBL1201862, “PubChem BioAssay data set” (2004).
Calls of active or inactive are those of the source.

Columns and labels:
[1] = target: T1, Sentrin-specific protease 7 (Homo sapiens, UniProt Q9BQF6); assay type: functional;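 note: Luminescence-based dose-response confirmation of ultra-high-throughput screening hits, measuring inhibition of SENP7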
T1 sequence (Q9BQF6 whole entry): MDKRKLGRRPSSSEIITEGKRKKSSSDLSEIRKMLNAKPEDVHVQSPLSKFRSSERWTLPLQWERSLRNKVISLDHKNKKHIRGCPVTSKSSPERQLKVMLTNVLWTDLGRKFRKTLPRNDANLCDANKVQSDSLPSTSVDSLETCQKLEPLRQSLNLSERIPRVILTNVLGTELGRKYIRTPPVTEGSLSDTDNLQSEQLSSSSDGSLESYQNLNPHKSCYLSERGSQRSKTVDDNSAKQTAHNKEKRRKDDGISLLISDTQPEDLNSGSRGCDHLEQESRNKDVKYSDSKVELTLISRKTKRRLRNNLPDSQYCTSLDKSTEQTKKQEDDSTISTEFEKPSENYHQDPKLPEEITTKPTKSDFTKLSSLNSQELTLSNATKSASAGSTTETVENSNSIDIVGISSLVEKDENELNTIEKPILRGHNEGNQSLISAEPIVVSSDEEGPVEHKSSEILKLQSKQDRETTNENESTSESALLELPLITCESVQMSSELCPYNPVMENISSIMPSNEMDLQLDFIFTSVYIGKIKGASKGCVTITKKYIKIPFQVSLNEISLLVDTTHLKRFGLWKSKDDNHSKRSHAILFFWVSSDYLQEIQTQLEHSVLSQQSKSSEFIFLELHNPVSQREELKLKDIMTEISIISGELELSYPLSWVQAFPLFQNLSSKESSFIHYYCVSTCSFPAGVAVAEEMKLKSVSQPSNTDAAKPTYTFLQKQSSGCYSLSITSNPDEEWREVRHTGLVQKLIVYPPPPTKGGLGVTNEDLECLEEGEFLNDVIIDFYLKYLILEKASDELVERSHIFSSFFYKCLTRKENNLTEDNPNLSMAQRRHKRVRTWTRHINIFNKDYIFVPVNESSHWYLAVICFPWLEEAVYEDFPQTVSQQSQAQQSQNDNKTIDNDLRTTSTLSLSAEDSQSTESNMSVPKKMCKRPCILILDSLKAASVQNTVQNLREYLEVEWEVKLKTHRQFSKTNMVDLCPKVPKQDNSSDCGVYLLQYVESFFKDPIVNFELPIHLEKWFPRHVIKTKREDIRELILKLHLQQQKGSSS

[2] = target: G2/mitotic-specific cyclin-B1 (Homo sapiens, UniProt P14635); assay: Counterscreen assay for inhibitors of Wee1 degradation: dose response cell-based assay to identify inhibitors of cyclin B degradation. [Related pubchem assays: 1410, 1321 ]; assay type: functional
G2/mitotic-specific cyclin-B1, sequence (P14635 whole entry): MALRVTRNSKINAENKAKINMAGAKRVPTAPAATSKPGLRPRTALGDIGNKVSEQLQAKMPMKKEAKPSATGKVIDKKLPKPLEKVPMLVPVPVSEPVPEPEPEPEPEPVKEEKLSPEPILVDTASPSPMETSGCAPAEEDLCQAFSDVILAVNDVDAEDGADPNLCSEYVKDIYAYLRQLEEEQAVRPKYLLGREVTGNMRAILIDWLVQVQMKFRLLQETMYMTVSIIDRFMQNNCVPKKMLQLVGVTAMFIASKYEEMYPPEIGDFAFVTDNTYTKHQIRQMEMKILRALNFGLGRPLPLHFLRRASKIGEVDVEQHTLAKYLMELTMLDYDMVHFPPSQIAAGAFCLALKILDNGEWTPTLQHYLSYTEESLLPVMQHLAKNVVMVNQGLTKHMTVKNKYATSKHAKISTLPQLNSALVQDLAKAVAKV

[3] = tested on: Jurkat; assay: SAR Analysis of small molecule inhibitors of T-cell specific antigen receptor-induced NF-kB activation in a Jurkat cell line using a luminescence assay - Set 2. [Related pubchem assays (depositor defined):AID435003, AID435012, AID465]; assay type: functional, cell-based; details: Homo sapiens
[4] = HepG2 cell cytotoxicity, dose response, cytotoxicity control for Shn3 inhibitor project, CellTiter-Glo, cherry-picked (AID 624134); assay type: functional, cell-based
[5] = control 3'UTR Renilla luciferase suppression, dose response, counter-screen for Shn3 inhibitor project, cell-based, Clone20-Shn3RL, cherry-picked (AID 624133); assay type: functional
[6] = target: Large T antigen (Simian virus 40, UniProt P03070); assay: A confirmatory biochemical assay using the ADP-Hunter methodology, purified TAg, and ATP to quantify activity of synthesized compounds that inhibit the ATPase activity of Tag (3). [Related pubchem assays (depositor defined):AID1903, AID1909, AID2102, AID2501, AID2615, AID2775, AID435001, AID449729]; design: species or system Betapolyomavirus macacae
Large T antigen, sequence (P03070 whole entry, the tested form may be a part): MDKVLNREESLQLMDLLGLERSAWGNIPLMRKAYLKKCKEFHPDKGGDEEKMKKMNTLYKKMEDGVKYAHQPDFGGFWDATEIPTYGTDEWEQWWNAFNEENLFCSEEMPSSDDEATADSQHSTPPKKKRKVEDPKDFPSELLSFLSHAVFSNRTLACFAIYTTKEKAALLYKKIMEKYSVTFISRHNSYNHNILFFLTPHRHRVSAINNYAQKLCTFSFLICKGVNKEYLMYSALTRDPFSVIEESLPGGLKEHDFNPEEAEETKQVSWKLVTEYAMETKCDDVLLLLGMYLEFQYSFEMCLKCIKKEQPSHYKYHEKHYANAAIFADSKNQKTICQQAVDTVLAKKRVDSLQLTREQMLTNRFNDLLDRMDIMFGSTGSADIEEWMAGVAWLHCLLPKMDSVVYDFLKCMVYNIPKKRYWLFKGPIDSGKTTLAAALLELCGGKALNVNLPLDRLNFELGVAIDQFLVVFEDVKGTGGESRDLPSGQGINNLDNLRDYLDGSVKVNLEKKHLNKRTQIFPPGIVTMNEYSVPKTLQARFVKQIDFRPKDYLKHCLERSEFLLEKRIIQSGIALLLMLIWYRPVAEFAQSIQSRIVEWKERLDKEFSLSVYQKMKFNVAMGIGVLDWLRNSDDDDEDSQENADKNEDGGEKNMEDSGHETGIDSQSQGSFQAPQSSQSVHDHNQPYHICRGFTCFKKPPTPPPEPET

[7] = target: Fatty acid synthase (Homo sapiens, UniProt P49327); assay: FAS thioesterase domain inhibitors, dose response, biochemical, endpoint fluorescence intensity, uHTS hits (AID 624327); assay type: functional;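 note: fluorescence from hydrolysis of an O-methyl fluorescein acyl ester substrate by the enzyme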
Fatty acid synthase, sequence (P49327 whole entry, the tested form may be a part): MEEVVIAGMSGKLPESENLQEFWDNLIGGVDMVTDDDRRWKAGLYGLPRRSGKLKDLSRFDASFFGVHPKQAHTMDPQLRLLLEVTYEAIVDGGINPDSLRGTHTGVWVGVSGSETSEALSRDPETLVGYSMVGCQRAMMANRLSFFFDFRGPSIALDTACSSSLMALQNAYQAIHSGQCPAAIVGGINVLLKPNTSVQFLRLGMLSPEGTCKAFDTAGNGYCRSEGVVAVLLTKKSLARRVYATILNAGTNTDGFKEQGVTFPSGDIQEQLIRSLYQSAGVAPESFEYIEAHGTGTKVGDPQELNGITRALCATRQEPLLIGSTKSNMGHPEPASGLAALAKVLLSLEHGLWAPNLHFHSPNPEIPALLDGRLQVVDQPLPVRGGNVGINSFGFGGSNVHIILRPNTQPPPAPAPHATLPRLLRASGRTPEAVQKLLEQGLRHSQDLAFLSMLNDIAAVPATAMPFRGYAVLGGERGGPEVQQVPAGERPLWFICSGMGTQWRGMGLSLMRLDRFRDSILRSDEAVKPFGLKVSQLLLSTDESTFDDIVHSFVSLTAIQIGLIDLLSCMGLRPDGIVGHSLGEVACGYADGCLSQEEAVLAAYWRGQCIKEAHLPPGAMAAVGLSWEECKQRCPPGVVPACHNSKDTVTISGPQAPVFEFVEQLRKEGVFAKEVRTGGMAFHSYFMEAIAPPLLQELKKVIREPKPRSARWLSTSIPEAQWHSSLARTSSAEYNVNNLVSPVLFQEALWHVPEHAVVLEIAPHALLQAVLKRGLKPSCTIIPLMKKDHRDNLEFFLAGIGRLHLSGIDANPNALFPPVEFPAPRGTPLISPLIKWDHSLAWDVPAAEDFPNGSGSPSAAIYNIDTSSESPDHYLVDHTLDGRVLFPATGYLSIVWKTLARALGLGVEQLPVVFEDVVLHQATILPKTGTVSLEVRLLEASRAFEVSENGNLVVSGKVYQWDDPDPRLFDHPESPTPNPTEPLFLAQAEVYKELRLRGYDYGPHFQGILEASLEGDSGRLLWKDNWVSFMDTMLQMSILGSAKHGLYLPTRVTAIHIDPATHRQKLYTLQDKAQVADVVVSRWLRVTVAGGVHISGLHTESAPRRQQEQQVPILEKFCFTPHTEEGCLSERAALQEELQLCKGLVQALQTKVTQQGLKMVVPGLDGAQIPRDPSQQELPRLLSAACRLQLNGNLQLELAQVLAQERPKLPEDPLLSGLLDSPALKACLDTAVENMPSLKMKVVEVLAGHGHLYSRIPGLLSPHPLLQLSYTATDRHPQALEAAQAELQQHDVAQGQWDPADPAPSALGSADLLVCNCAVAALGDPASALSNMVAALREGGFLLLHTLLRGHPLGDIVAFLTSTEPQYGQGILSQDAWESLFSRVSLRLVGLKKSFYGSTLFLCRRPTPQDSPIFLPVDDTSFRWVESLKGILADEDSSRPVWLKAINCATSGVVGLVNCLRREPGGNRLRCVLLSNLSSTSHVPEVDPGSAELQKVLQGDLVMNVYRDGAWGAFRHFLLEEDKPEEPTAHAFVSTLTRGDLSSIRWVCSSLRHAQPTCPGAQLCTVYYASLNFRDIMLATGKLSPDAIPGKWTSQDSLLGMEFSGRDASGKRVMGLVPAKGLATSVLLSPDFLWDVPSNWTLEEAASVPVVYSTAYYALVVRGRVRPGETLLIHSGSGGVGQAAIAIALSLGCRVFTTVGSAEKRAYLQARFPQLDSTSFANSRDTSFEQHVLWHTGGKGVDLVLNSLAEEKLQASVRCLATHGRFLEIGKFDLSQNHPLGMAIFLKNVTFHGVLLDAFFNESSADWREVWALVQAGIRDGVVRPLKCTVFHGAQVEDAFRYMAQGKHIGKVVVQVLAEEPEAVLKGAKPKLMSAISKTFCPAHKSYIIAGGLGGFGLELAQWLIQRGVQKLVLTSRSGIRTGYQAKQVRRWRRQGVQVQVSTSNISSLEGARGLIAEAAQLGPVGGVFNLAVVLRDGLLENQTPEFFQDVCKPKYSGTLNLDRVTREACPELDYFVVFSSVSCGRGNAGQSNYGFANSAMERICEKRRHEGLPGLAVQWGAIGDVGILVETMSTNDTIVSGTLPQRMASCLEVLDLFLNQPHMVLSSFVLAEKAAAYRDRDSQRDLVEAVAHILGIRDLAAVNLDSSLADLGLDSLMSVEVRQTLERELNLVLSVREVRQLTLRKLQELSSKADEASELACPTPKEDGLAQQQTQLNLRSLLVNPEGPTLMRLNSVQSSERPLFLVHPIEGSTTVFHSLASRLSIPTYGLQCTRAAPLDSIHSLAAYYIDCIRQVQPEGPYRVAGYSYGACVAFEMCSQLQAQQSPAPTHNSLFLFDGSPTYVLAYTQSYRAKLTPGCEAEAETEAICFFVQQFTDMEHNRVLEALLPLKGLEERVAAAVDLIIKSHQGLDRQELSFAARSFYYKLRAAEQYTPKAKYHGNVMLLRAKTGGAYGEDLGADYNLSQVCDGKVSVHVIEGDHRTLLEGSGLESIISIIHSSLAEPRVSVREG

N#Cc1c(N2CCCCC2)nc(N)c2c(N)nc(SCC(=O)O)cc12
IC50 [1]: 11.8 µM (active)

O=[N+]([O-])c1ccc(Sc2cccc[n+]2[O-])c2nonc12
EC50 [2]: > 49.7 µM (not active)

CCCC(=O)NC(c1ccc(C(C)C)cc1)c1ccc2cccnc2c1O (configuration not stated)
IC50 [3]: 2.58 µM (active) | AC50 [4]: 1.91 µM (active) | AC50 [5]: 938 nM (active)

Oc1c(Cl)cc(Cl)c(Cl)c1Cc1c(O)c(Cl)cc(Cl)c1Cl [HEXACHLOROPHENE]
IC50 [6]: 34.5 µM (active) | IC50 [7]: 7.79 µM (active)
